Measured values reported in patent publication US20250171452A1 (Viscient Bio, Inc., priority 2022, published 2025).

What was measured:
IDO2 = IDO2 (Homo sapiens (Human), UniProt Q6ZQW0); test: Cellular IDO2 assay, doxycycline and 5-methoxy-L-tryptophan medium, colorimetric; assay type: cell-based; conditions: cellular level, 72 h incubation, signal at 480 nm
Procedure: IDO2 inhibition at the cellular level was evaluated in vitro using the following procedure.
Using cell culture medium, the volume of the suspension was adjusted to achieve a cell concentration of 20,000 cells/well (90 uL/well).
5-Methoxy-L-tryptophan powder was dissolved in the culture medium to a concentration of 10 mM, then filtered and sterilized with a 0.22 um filter. Doxycycline powder was dissolved in ddH2O to a concentration of 100 ug/ml, then filtered and sterilized with a 0.22 um filter. 5-aminolevulinic acid powder was dissolved in ddH2O to a concentration of 400 mM, then filtered and sterilized with a 0.22 um filter. A 2× Assay medium was then by diluting the doxycycline (from 100 ug/ml to 2 ug/ml) and 5-Methoxy-L-tryptophan (from 10 mM to 5 mM) in culture medium. The 5-aminolevulinic acid solution was also added to the solution (diluting the concentration from 400 mM to 2 mM) to get a 2× working solution.
After incubation, plates and reagents were allows to equilibrate to room temperature. […] Trichloroacetic acid powder was dissolved in ddH2O to prepare 6.1N trichloroacetic acid. […] The plates were incubated at 55° C. for 40 minutes, and then centrifuged for 10 min at 2500 rpm. […] Measurement of the signal was performed using Envision at 480 nm. Throughout the foregoing process, care was taken to prevent exposure to light.

[1] = molecular target: Indoleamine 2,3-dioxygenase 1 (IDO1) (Homo sapiens (Human), UniProt P14902); test: Cellular IDO1 assay: kynurenine production in IFN-γ-stimulated HeLa cells, colorimetric
Sequence of Indoleamine 2,3-dioxygenase 1 (IDO1) (P14902 whole entry): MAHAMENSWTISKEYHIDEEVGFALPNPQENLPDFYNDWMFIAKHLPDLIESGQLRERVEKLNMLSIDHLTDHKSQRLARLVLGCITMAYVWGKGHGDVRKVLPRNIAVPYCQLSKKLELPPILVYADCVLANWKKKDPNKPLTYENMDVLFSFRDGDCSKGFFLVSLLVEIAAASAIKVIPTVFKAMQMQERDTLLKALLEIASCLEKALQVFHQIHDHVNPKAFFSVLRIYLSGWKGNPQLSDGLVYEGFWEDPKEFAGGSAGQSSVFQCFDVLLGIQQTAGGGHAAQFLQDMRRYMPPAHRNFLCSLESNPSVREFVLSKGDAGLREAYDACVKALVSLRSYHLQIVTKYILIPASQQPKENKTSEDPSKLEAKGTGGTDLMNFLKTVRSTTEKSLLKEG

Sequence of IDO2 (Q6ZQW0 whole entry, species assumed): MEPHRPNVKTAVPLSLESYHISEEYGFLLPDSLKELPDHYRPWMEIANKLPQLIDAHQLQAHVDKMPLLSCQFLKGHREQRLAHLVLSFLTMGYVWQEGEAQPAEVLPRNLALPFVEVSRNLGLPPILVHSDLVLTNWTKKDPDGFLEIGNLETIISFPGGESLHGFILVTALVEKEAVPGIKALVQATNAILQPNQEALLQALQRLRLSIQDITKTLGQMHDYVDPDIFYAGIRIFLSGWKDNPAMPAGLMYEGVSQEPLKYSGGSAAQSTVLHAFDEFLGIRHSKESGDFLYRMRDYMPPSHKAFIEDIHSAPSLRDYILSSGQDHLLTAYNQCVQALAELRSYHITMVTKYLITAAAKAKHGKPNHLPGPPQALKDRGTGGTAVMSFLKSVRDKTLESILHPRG

Compound	IC50 (IDO2) [nM]	IC50 [1] [nM]
O=C1c2cc(F)ccc2-n2c1nc1c(Br)cccc1c2=O [Compound 44, 4-Bromo-8-fluoroindolo[2,1-b]quinazoline-6,12-dione]	< 50	50 to 500
O=C1c2cc([N+](=O)[O-])ccc2-n2c1nc1c(Br)cc(F)cc1c2=O [Compound 45, 4-Bromo-2-fluoro-8-nitroindolo[2,1-b]quinazoline-6,12-dione]	50 to 500	50 to 500
N#Cc1ccc2c(c1)C(=O)c1nc3c(Br)cccc3c(=O)n1-2 [Compound 46, 4-bromo-6,12-dioxo-6,12-dihydroindolo[2,1-b]quinazoline-8-carbonitrile]	< 50	50 to 500
O=C1c2cc([N+](=O)[O-])ccc2-n2c1nc1c(Br)cc(Cl)cc1c2=O [Compound 47, 4-Bromo-2-chloro-8-nitroindolo[2,1-b]quinazoline-6,12-dione]	50 to 500	> 500
Cc1cc(C)c2nc3n(c(=O)c2c1)-c1ccc([N+](=O)[O-])cc1C3=O [Compound 48, 2,4-Dimethyl-8-nitroindolo[2,1-b]quinazoline-6,12-dione]	< 50	< 50
Cc1cc(F)cc2c(=O)n3c(nc12)C(=O)c1cc([N+](=O)[O-])ccc1-3 [Compound 49, 2-Fluoro-4-methyl-8-nitroindolo[2,1-b]quinazoline-6,12-dione]	< 50	50 to 500
O=C1c2cc([N+](=O)[O-])ccc2-n2c1nc1c(Br)c(Cl)ccc1c2=O [Compound 50, 4-Bromo-3-chloro-8-nitroindolo[2,1-b]quinazoline-6,12-dione]	50 to 500	> 500
O=C1c2cc([N+](=O)[O-])ccc2-n2c1nc1cnc(O)cc1c2=O [Compound 51, 3-Hydroxy-9-nitropyrido[3′,4′:4,5]pyrimido[1,2-a]indole-5,11-dione]	50 to 500	> 500
